Results reported in ChEMBL document CHEMBL1149500, “Binding of aminoglycosidic antibiotics to the oligonucleotide A-site model and 30S ribosomal subunit: Poisson-Boltzmann model, thermal denaturation, and fluorescence studies” (J Med Chem, 2006).
pKd: −log10 of the molar value.

These molecules were tested against Ribosomal RNA A-site (assay: Binding affinity to bacterial ribosomal A site RNA oligonucleotide).
Type: nucleic-acid assay

| SMILES | pKd |
| --- | --- |
| CN[C@@H]1[C@@H](O)[C@@H](O[C@@H]2[C@@H](O)[C@H](O[C@H]3O[C@H]([C@@H](C)O)[C@@H](O)[C@H](O)[C@H]3N)[C@@H](N)C[C@H]2N)OC[C@]1(C)O [GENETICIN] | 4.84 |
| CN[C@@H]1[C@H](O)[C@@H](O[C@@H]2[C@@H](O)[C@H](O[C@H]3O[C@H](CN)CC[C@H]3N)[C@@H](N)C[C@H]2N)OC[C@]1(C)O [GENTAMICIN C] | 5.26 |
| NC[C@H]1O[C@H](O[C@H]2[C@H](O)[C@@H](O)[C@H](N)C[C@@H]2N)[C@H](N)[C@@H](O)[C@@H]1O [NEAMINE] | 5.13 |
| NC[C@@H]1O[C@H](O[C@H]2[C@@H](O)[C@H](O[C@@H]3[C@@H](O)[C@H](N)C[C@H](N)[C@H]3O[C@H]3O[C@H](CO)[C@@H](O)[C@H](O)[C@H]3N)O[C@@H]2CO)[C@H](N)[C@@H](O)[C@@H]1O [PAROMOMYCIN] | 6.41 |
| NC[C@H]1O[C@H](O[C@H]2[C@H](O[C@@H]3O[C@H](CO)[C@@H](O)[C@H]3O)[C@@H](O)[C@H](N)C[C@@H]2N)[C@H](N)[C@@H](O)[C@@H]1O [RIBOSTAMYCIN] | 4.79 |
